Source: the supplement of paper PMC11208160

Assay: recombinant UMI read abundance after kanamycin selection (control-corrected) (log10(CPM+1)); higher = more efficient recombination; extreme values may be limits of the assay; sequences stand for … in AGTGCAGAGAAAATCGGCCAGTTTTCTCTGCCTGCAGTCCGCATGCCGTGGGACCCCTTGGGTTCTAACCTGTTGCCTAGATTTATGCAGCGGACTGCCTTTCTCCCAAAGTGATAAACCGG…AGGTTGGTTTCACT; site = the 11-nt donor
How it was run: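 Pooled Escherichia coli screen of donor and donor-binding-loop pairs for the IS621 bridge recombinase. Each pair sits with a 12-nt UMI on a plasmid carrying a promoterless kanamycin gene. The library was co-electroporated with a target plasmid encoding a fixed target and T7-inducible recombinase, then plated with IPTG (0.07 mM) plus kanamycin, or unselected, each in two replicates. Recombinant UMIs were PCR-amplified across the donor–target junction and sequenced. Counts became CPM, averaged over replicates, scaled by control-derived factors and reported as log10(CPM+1).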
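Also: IS621 bridge recombinase in Escherichia coli cells against a fixed T5 target plasmid.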

Sequence	recombinant UMI read abundance (log10)
AATGTCTCATGGACCGGTTTTCCCGGTAATCCGTATTTGAC (site AATGTGTCTGT)	0
AATGGAACATGGACCGGTTTTCCCGGTAATCCGTATTTGCT (site AATGCAACTAG)	1.05
CAAGCAGCATGGACCGGTTTTCCCGGTAATCCGTATTTGCC (site CAAGCAGCTAG)	1.86
TGGTTCCCATGGACCGGTTTTCCCGGTAATCCGTATTTGTG (site CGGTTCCCTCA)	0.0117
TCGGAGACATGGACCGGTTTTCCCGGTAATCCGTATTTGCG (site TCAGAGACTCG)	1.72
CTATCGACATGGACCGGTTTTCCCGGTAATCCGTATTTGTT (site CCATCGACTAA)	0.0135
ATCCAACCATGGACCGGTTTTCCCGGTAATCCGTATTTGAG (site ATCCAAGCTCT)	0.133
GGCTTGACATGGACCGGTTTTCCCGGTAATCCGTATTTGCG (site GGCTTGACTCG)	0.919
TCTGAGACATGGACCGGTTTTCCCGGTAATCCGTATTTGCC (site TCTGAGACTGG)	0.0914
AGTTGGTCATGGACCGGTTTTCCCGGTAATCCGTATTTGAA (site AGTTGGTCTTT)	0.435
TAGTACCCATGGACCGGTTTTCCCGGTAATCCGTATTTGGT (site TAGTACCCTAC)	0.271
GTGCATGCATGGACCGGTTTTCCCGGTAATCCGTATTTGGT (site GTGCTTGCTAC)	0.00578
GCCGATGCATGGACCGGTTTTCCCGGTAATCCGTATTTGGA (site GCCGATGCTTC)	1.45
AGATTATCATGGACCGGTTTTCCCGGTAATCCGTATTTGCT (site CGATCATCTAG)	0
GAACATTCATGGACCGGTTTTCCCGGTAATCCGTATTTGTT (site GAAAATTCTAA)	0
GCCTGAACATGGACCGGTTTTCCCGGTAATCCGTATTTGCA (site GCCTGAACTTG)	2.12
GTCACGCCATGGACCGGTTTTCCCGGTAATCCGTATTTGTA (site GTCACGCCTTA)	0.476
GCCACGCCATGGACCGGTTTTCCCGGTAATCCGTATTTGTA (site GCCATGCCTTA)	0.465
ACAGTAACATGGACCGGTTTTCCCGGTAATCCGTATTTGCT (site ACAGTAACTAG)	2.7
ATAGGTGCATGGACCGGTTTTCCCGGTAATCCGTATTTGTC (site ATAGGTGCTGA)	2.7
GTGCATGCATGGACCGGTTTTCCCGGTAATCCGTATTTGGT (site GTGCAAGCTAC)	0.00542
ACACATCCATGGACCGGTTTTCCCGGTAATCCGTATTTGAC (site ACACATCCTTT)	0.421
TAGCCTTCATGGACCGGTTTTCCCGGTAATCCGTATTTGGT (site AAGCCTTCTAC)	0.00534
CTCTGGACATGGACCGGTTTTCCCGGTAATCCGTATTTGGA (site TGAGTCTCTCA)	0
GCGTGACCATGGACCGGTTTTCCCGGTAATCCGTATTTGCA (site GCGTGACCTTG)	0.00644

Sequence	recombinant UMI read abundance (log10)
TCGAGGACATGGACCGGTTTTCCCGGTAATCCGTATTTGGC (site TCGAGGACTGC)	0
ATGTCGGCATGGACCGGTTTTCCCGGTAATCCGTATTTGGC (site ATGTAGGCTGC)	0.445
TGTCCAACATGGACCGGTTTTCCCGGTAATCCGTATTTGTA (site TGTCCAACTTA)	0.208
TAAAGTCCATGGACCGGTTTTCCCGGTAATCCGTATTTGTC (site TAAAGTCCTAA)	0.0955
AACCATCCATGGACCGGTTTTCCCGGTAATCCGTATTTGAT (site AACCGTCCTAT)	0.00892
GCAAGAACATGGACCGGTTTTCCCGGTAATCCGTATTTGAC (site GCAAGAACTGT)	2.57
AGCAGATCATGGACCGGTTTTCCCGGTAATCCGTATTTGAA (site AGCAGATCTTT)	1.77
TGGATACCATGGACCGGTTTTCCCGGTAATCCGTATTTGTT (site TGGATACCTAA)	0
TCCAATTCATGGACCGGTTTTCCCGGTAATCCGTATTTGCC (site TCCATTTCTGG)	0
TGTTCCCCATGGACCGGTTTTCCCGGTAATCCGTATTTGTA (site TGTTCCCCTGA)	0
GTTGGAACATGGACCGGTTTTCCCGGTAATCCGTATTTGGC (site GTTTGAACTGC)	0
TCCAATTCATGGACCGGTTTTCCCGGTAATCCGTATTTGCC (site TCCAATGCTGG)	0
CTCCTTACATGGACCGGTTTTCCCGGTAATCCGTATTTGAG (site CTCCCTACTCT)	0.00731
AGAAAGGCATGGACCGGTTTTCCCGGTAATCCGTATTTGCT (site AGAACGGCTAG)	0.235
ACACGTCCATGGACCGGTTTTCCCGGTAATCCGTATTTGAC (site ACACGTCCTGT)	0.959
TAAAATACATGGACCGGTTTTCCCGGTAATCCGTATTTGCA (site TACAATACTTG)	0.953
TTAACTGCATGGACCGGTTTTCCCGGTAATCCGTATTTGTG (site TTACCTGCTCA)	0.00413
AGGTGGACATGGACCGGTTTTCCCGGTAATCCGTATTTGTA (site AGGTGGACTTA)	2.2
CCTGGTGCATGGACCGGTTTTCCCGGTAATCCGTATTTGAT (site CCCGGTGCTAT)	0.00946
CGCTGGCCATGGACCGGTTTTCCCGGTAATCCGTATTTGCT (site CGCTGGCCTAG)	0.278
AGACGAACATGGACCGGTTTTCCCGGTAATCCGTATTTGGA (site AGACGAACTTC)	1.82
CAGTTACCATGGACCGGTTTTCCCGGTAATCCGTATTTGCC (site CAGTTACCTGG)	0
ACACGAACATGGACCGGTTTTCCCGGTAATCCGTATTTGGC (site ACACGAACTGT)	1.93
TTCGCACCATGGACCGGTTTTCCCGGTAATCCGTATTTGGT (site TTCGCACCTAC)	0.00499
GTTCAAGCATGGACCGGTTTTCCCGGTAATCCGTATTTGCA (site GTTCGAGCTTG)	0

Sequence	recombinant UMI read abundance (log10)
GCTACTGCATGGACCGGTTTTCCCGGTAATCCGTATTTGAC (site GCTACTGCTGA)	0
GTAGGTACATGGACCGGTTTTCCCGGTAATCCGTATTTGTT (site GTAGGTACTAA)	1.01
CGGACATCATGGACCGGTTTTCCCGGTAATCCGTATTTGGT (site CGGACATCTAG)	0
GGAGTCGCATGGACCGGTTTTCCCGGTAATCCGTATTTGCG (site GGAGTCGCTCG)	1.28
GTTGGTCCATGGACCGGTTTTCCCGGTAATCCGTATTTGGT (site GTTGATCCTAC)	0.0104
ACACTATCATGGACCGGTTTTCCCGGTAATCCGTATTTGTA (site ACACTATCTTA)	2.98
TGGAATACATGGACCGGTTTTCCCGGTAATCCGTATTTGCA (site TAGAATACTTG)	0.91
CTACGCTCATGGACCGGTTTTCCCGGTAATCCGTATTTGAT (site CTACGCTCTAT)	2.86
GCCACGCCATGGACCGGTTTTCCCGGTAATCCGTATTTGTA (site ACCACGCCTTA)	0.145
CCCTAACCATGGACCGGTTTTCCCGGTAATCCGTATTTGCC (site CCCTAACCTGG)	0
ATAGGGCCATGGACCGGTTTTCCCGGTAATCCGTATTTGAC (site ATAGGGCCTGT)	0
TGTACGCCATGGACCGGTTTTCCCGGTAATCCGTATTTGAC (site TGTACACCTGT)	0
ACGCTATCATGGACCGGTTTTCCCGGTAATCCGTATTTGCA (site ACGCTATCTTG)	2.75
TGAGTGGCATGGACCGGTTTTCCCGGTAATCCGTATTTGGT (site AGAGTGGCTAC)	0.339
AACAGTGCATGGACCGGTTTTCCCGGTAATCCGTATTTGTC (site AACAGTGCTGA)	2.39
TCCCACTCATGGACCGGTTTTCCCGGTAATCCGTATTTGGG (site TCCCACTCTCC)	0.0433
ACTAGAACATGGACCGGTTTTCCCGGTAATCCGTATTTGAG (site ACTGGAACTCT)	0.3
CCGCTAGCATGGACCGGTTTTCCCGGTAATCCGTATTTGTG (site CCGATAGCTCA)	0.0148
AACAACCCATGGACCGGTTTTCCCGGTAATCCGTATTTGAA (site AACAACCCTTT)	0.192
AACTGCGCATGGACCGGTTTTCCCGGTAATCCGTATTTGTG (site AACTGCGCTCA)	0.435
TGTACACCATGGACCGGTTTTCCCGGTAATCCGTATTTGAC (site TGTACATCTGT)	0
TGGCCGGCATGGACCGGTTTTCCCGGTAATCCGTATTTGGC (site TGGCCGACTGC)	0
TTAGCCGCATGGACCGGTTTTCCCGGTAATCCGTATTTGTG (site TTAGCAGCTCA)	0.108
CCCCGTCCATGGACCGGTTTTCCCGGTAATCCGTATTTGAA (site CCCCGTCCTTT)	0.00894
CCCGTTCCATGGACCGGTTTTCCCGGTAATCCGTATTTGCA (site CCCGTTCCTTG)	0
